From US20040121946A9, “Inducing cellular immune responses to her2/neu using peptide and nucleic acid compositions” (priority 2002, published 2004)
Read-outs that look alike come from different tables or passages of the source. Where a SMILES comes first, the peptide text is derived from it. Where no end group is shown, it is not given here. [ ]: non-standard residue; d: D form. Abu = CC[C@H](N)C(=O)O

Tests used:
[1] = target: HLA-A*0101 (Homo sapiens, UniProt P04439, A114D/A174V/A182V/D101N/D185E/E176A/E190D/L180R/Q94H/R68K/S129P/T187R/V100A/V91M/W191G); format: binding; settings: Table XXV, HLA-A1 motif-bearing peptides
[2] = test system: tumor targets that endogenously express HER2/neu (colon adenocarcinoma cell lines SW403 and HT-29); assay: Primary in vitro CTL induction, recognition of wild-type peptide and endogenous tumor targets (51Cr release / in situ IFNγ ELISA); format: cell-based, human; settings: in vitro, expanded positive cultures
[3] = test system: .221A2.1 cell line, peptide-loaded target; assay: Primary in vitro CTL induction, peptide-specific recognition (51Cr release / in situ IFNγ ELISA); format: cell-based, human; settings: normal donors, peptide-pulsed targets
Experimental: The colon adenocarcinoma cell lines SW403 and HT-29 were obtained from the American Type Culture Collection (ATCC) (Rockville, Md.). The cell lines that were obtained from ATCC were maintained under the culture conditions recommended by the supplier. […] The colon cancer cells were treated with 100U/ml IFNγ (Genzyme) for 48 hours at 37° C. before use as targets in the ^51Cr release and in situ IFNγ assays.
The monocytes were purified by plating 10×10^6 PBMC/well in a 6-well plate. After 2 hours at 37° C., the non-adherent cells were removed by gently shaking the plates and aspirating the supernatants. The wells were washed a total of three times with 3 ml RPMI to remove most of the non-adherent and loosely adherent cells. Three ml of complete medium containing 50 ng/ml of GM-CSF and 1,000 U/ml of IL-4 were then added to each well. DC were used for CTL induction cultures following 7 days of culture.
Induction of CTL with DC and Peptide: CD8+ T-cells were isolated by positive selection with Dynal immunomagnetic beads (Dynabeads® M-450) and the detacha-bead® reagent. Typically about 200-250×10^6 PBMC were processed to obtain 24×10^6 CD8^+ T-cells (enough for a 48-well plate culture). Briefly, the PBMCs were thawed in RPMI with 30 μg/ml DNAse, washed once with PBS containing 1% human AB serum and resuspended in PBS/1% AB serum at a concentration of 20×10^6cells/ml. The magnetic beads were washed 3 times with PBS/AB serum, added to the cells (140 μl beads/20×10^6 cells) and incubated for 1 hour at 4° C. with continuous mixing. The beads and cells were washed 4× with PBS/AB serum to remove the nonadherent cells and resuspended at 100×10^6 cells/ml (based on the original cell number) in PBS/AB serum containing 100 μl/ml detacha-bead® reagent and 30 μg/ml DNAse. The mixture is incubated for 1 hour at room temperature with continuous mixing. The beads were washed again with PBS/AB/DNAse to collect the CD8+ T-cells. The DC were collected and centrifuged at 1300 rpm for 5-7 minutes, washed once with PBS with 1% BSA, counted and pulsed with 40 μg/ml of peptide at a cell concentration of 1-2×10^6/ml in the presence of 3 μg/ml β2-microglobulin for 4 hours at 20° C. The DC were then irradiated (4,200 rads), washed 1 time with medium and counted again.
Setting up induction cultures: 0.25 ml cytokine-generated DC (@1×10^5 cells/ml) were co-cultured with 0.25 ml of CD8+ T-cells (@2×10^6 cell/ml) in each well of a 48-well plate in the presence of 10 ng/ml of IL-7. rHuman IL10 was added the next day at a final concentration of 10 ng/ml and rhuman IL2 was added 48 hours later at 10 IU/ml.
Restimulation of the induction cultures with peptide-pulsed adherent cells: Seven and fourteen days after the primary induction the cells were restimulated with peptide-pulsed adherent cells. The PBMCS were thawed and washed twice with RPMI and DNAse. The cells were resuspended at 5×10^6 cells/ml and irradiated at ˜4200 rads. The PBMCs were plated at 2×10^6 in 0.5 ml complete medium per well and incubated for 2 hours at 37° C. The plates were washed twice with RPMI by tapping the plate gently to remove the nonadherent cells and the adherent cells pulsed with 10 μg/ml of peptide in the presence of 3 μg/ml β2 microglobulin in 0.25 ml RPMI/5%AB per well for 2 hours at 37° C. Peptide solution from each well was aspirated and the wells were washed once with RPMI. Most of the media was aspirated from the induction cultures (CD8+ cells) and brought to 0.5 ml with fresh media. […]

[4] = target: HLA-A*0201 (Homo sapiens, UniProt P04439, D140Y/D185E/D98H/E176V/E277Q/G131W/G231S/I119V/I121R/I166T/I218V/L300P/L318F/N151K/N90K/P208A/P217A/Q86G/Q94H/R138H/R169H/T345S); format: binding; settings: Table XXII, A2 supermotif peptides and analogs
[5] = target: HLA-A*0203 (Homo sapiens, UniProt P04439, A173T/D140Y/D185E/D98H/E277Q/G131W/G231S/I119V/I121R/I166T/I218V/L180W/L300P/L318F/N151K/N90K/P208A/P217A/Q86G/Q94H/R138H/R169H/T345S); format: binding; settings: Table XXII, A2 supermotif peptides and analogs
[6] = target: HLA-A*0206 (Homo sapiens, UniProt P04439, D140Y/D185E/D98H/E176V/E277Q/F33Y/G131W/G231S/I119V/I121R/I166T/I218V/L300P/L318F/N151K/N90K/P208A/P217A/Q86G/Q94H/R138H/R169H/T345S); format: binding; settings: Table XXII, A2 supermotif peptides and analogs
[7] = target: HLA-A*2402 (Homo sapiens, UniProt P04439, D101N/D140Y/D185E/E176V/E190D/F33S/G103R/G107R/I119L/I121M/I306V/K335N/L105A/L180Q/L300P/N151K/N90K/Q86E/Q94H/R106L/R138H/R89G/T104I/T345S/V100E/W191G/Y123F); format: binding; settings: HLA-A24 motif-bearing peptides, Table XXVI
Source text: The corresponding peptide sequence are then synthesized and tested for binding to the appropriate allele-specific HLA molecule, HLA-A1 or HLA-24.

Row | Compound | recognition of wild-type peptide and of tumor targets endogenously expressing HER2/neu by induced CTL [2] | induction of peptide-specific CTL [3] | other results
1 | CC(C)[C@H](NC(=O)[C@H](CS)NC(=O)[C@@H](NC(=O)[C@H](C)N)[C@@H](C)O)C(=O)N[C@H](C(=O)N[C@@H](C)C(=O)N[C@@H](CS)C(=O)N1CCC[C@H]1C(=O)N[C@@H](Cc1ccc(O)cc1)C(=O)O)[C@@H](C)O [Her2/neu.293.T2] | – | – | IC50 ([1]; read-out: A*[…]): 0.049 µM
2 | CC(C)C[C@H](NC(=O)[C@H](CO)NC(=O)CNC(=O)[C@H](Cc1ccccc1)NC(=O)[C@H](CC(C)C)NC(=O)[C@@H](N)CCCCN)C(=O)N[C@@H](C)C(=O)N[C@@H](Cc1ccccc1)C(=O)N[C@H](C(=O)O)C(C)C [Her2/neu.369L2V9] | also recognized the target tumor cells | induced peptide-specific CTLs | –
3 | CC(C)[C@H](NC(=O)[C@H](CS)NC(=O)[C@H](CCC(N)=O)NC(=O)[C@H](CC(=O)O)NC(=O)[C@H](C)NC(=O)[C@@H](N)CCC(=O)O)C(=O)N[C@@H](C)C(=O)N[C@@H](CS)C(=O)N[C@@H](C)C(=O)N[C@@H](Cc1c[nH]cn1)C(=O)N[C@@H](Cc1ccc(O)cc1)C(=O)O [Her2/neu.580] | – | – | IC50 [1]: 0.25 µM
4 | CC[C@H](NC(=O)[C@H](CCCCN)NC(=O)[C@@H](NC(=O)[C@H](CCSC)NC(=O)[C@@H](NC(=O)[C@H](CC(C)C)NC(=O)[C@@H](N)Cc1ccc(O)cc1)[C@@H](C)CC)C(C)C)C(=O)N[C@@H](Cc1c[nH]c2ccccc12)C(=O)N[C@@H](CCSC)C(=O)N[C@H](C(=O)O)C(C)C [Her2/neu.952L2B7V10] (H-YLIMVK[Abu]WMV-OH) | no wild-type peptide or endogenous recognition was observed | induced peptide-specific CTLs in at least 2 donors | IC50 [4]: 0.0072 µM; IC50 [5]: 0.077 µM; IC50 [6]: 0.011 µM
5 | CC[C@H](NC(=O)[C@H](CC(C)C)NC(=O)[C@H](C)N)C(=O)N[C@@H](CCCNC(=N)N)C(=O)N[C@@H](Cc1c[nH]c2ccccc12)C(=O)NCC(=O)N[C@@H](CC(C)C)C(=O)N[C@@H](CC(C)C)C(=O)N[C@H](C(=O)O)C(C)C [Her2neu.5B3V9] (H-AL[Abu]RWGLLV-OH) | no wild-type peptide or endogenous recognition was observed | induced peptide-specific CTLs in at least 2 donors | IC50 [4]: 0.018 µM
6 | CC(C)C[C@H](NC(=O)[C@H](CO)NC(=O)CNC(=O)[C@H](Cc1ccccc1)NC(=O)[C@@H](NC(=O)[C@@H](N)CCCCN)C(C)C)C(=O)N[C@@H](C)C(=O)N[C@@H](Cc1ccccc1)C(=O)N[C@H](C(=O)O)C(C)C [Position V2V9] | also recognized the target tumor cells | induced peptide-specific CTLs | –
7 | H-VLLGVVFGV-OH [Her2/neu.665L2V9] | Peptide-specific CTL activity was maintained in some of the cultures, but no corresponding endogenous recognition was observed | strong peptide-specific CTL response was observed | –
8 | RWGLLLAL [RWGLLLAL] | – | – | IC50 [7]: 0.48 µM
9 | TYLPTNASL | – | – | IC50 [7]: 0.316 µM
